# How the values were obtained:
# [1] = system: male Tyr mice; test: Visual evoked potentials (VEP); format: in vivo, mouse; parameters: key to NAP efficacy: visual evoked potential: corrections by NAP treatment (+)
# Method: VEP—5.72±0.52-week-old male mice were used for VEP measurements. Animals were treated for 3 days with 0.1 ml S.C saline, recorded, and then followed by 4 daily S.C doses of either 1 μg NAP (in 0.1 ml saline) or 0.1 ml saline followed by another VEP recording.
# [2] = system: Tyr-GFP mice; test: Dendritic spine quantitation; format: in vivo, mouse; parameters: key to NAP efficacy: synaptic structural alterations: corrections by NAP treatment (+)
# Method: Spine quantitation—For determination of dendritic spine morphology, the Tyr-GFP mouse model was used and generated as described(12). 1.5-2-month-old Tyr-GFP-mice were treated for 9 consecutive days with either intraperitoneal NAP injection (0.4 μg/0.1 ml saline) or with 0.1 ml saline. On day 9, mice were perfused, and brains were subjected to immunohistochemistry and imaging (12).
# [3] = system: Shank3-Adnp-actin interactions; test: Actin co-immunoprecipitations from mouse brain extracts
# Description: De novo heterozygous mutations in ADNP reproduced the autistic ADNP syndrome. ADNP mutations impair microtubule (MT) function, essential for synaptic activity. The ADNP MT-associating fragment NAPVSIPQ (NAP) (SEQ ID NO 2) contains an MT end-binding protein interacting domain, SxIP (mimicking the active-peptide, SKIP, SEQ ID NO 21). The inventors hypothesized that not all ADNP mutations are similarly deleterious and that the NAPV portion of NAPVSIPQ is biologically active. Using the eukaryotic linear motif (ELM) resource, the inventors identified a Src homology 3 (SH3) domain-ligand association site in NAP responsible for controlling signaling pathways regulating the cytoskeleton, namely NAPVSIP (SEQ ID NO: 2). Altogether, the inventors mapped multiple SH3-binding sites in ADNP. […] Site-directed-mutagenesis, abolishing the p.Lys408Valfs*31 SH3-binding motif, produced MT toxicity. […] Lastly, SH3 and multiple ankyrin repeat domains protein 3 (SHANK3), a major autism gene product, interact with the cytoskeleton through an actin-binding motif to modify behavior.
# [4] = system: differentiated N1E-115 cells; test: Live imaging of EB3 comet-like structures (MT dynamics); format: cell-based, mouse
# Method: Cell culture—Mouse neuroblastoma NIE-115 cells were maintained in Dulbecco's modified Eagle's medium, 10% fetal bovine serum, 2 mM glutamine and 100 U ml—1 penicillin, […] ml—1 streptomycin (Biological Industries, Beit Haemek, Israel). The cells were incubated in 95% air/5% CO2 in a humidified incubator at 37° C.
# Cell differentiation and co-transfection of overexpression plasmids—Cultured NIE-115 cells were plated on 35 mm dishes (81156, 60μ-Dish, Ibidi, Martinsried, Germany) at a concentration of 1.25×10^4 cells per dish and then were differentiated with reduced fetal bovine serum (2%) and DMSO (1.25%) containing medium for 5 days before transfection. 48 hrs before experiments N1E-115 cells were co-transfected with 1 μg EB3-RFP or mCherry-Tau (3R) plasmid with or without 2 μg of plasmids, coding to GFP conjugated to full-length human ADNP, or ADNP carried mutations. 1:3 ratios between total amount of transfected DNA and transfection reagent were used according to manufacture guidance (Lipofectamine2000, Thermo Fisher Scientific, Waltham, MA, USA) in all subsequent experiments.
# Live Imaging—48 hrs after transfection, differentiated NIE-115 cells (expressing EB3-RFP with or without GFP-conjugated to full-length ADNP or mutated ADNP) were incubated at 37° C. with a 5% CO2/95% air mixture in a thermostatic chamber placed on the stage of a Leica TCS SP5 confocal microscope (objective 100× (PL Apo) oil immersion, NA 1.4). Time-lapse images were automatically captured 3 sec during 1 min, using the Leica LAS AF software. After imaging all samples were also treated with NAP (SEQ ID NO: 2) or SKIP (SEQ ID NO: 21) in final concentrations of 10^−12 M, and after 4 hrs time-lapse imaging was done again under the same conditions. Data was collected and analyzed by Imaris software.
# To evaluate the effect of ADNP truncated proteins on MT dynamics time-lapse imaging of EB3 comet-like structures formed by RFP-tagged EB3 proteins that bind to MT plus-ends was performed. Two parameters of EB3 activity were used to assess MT dynamics—track length and track speed of EB3 comets, which reflect the length of freshly growing MTs and the speed of MT assembly, respectively. Furthermore, the present inventors aimed to determine whether NAP (10^−12 M for 4 hrs) could prevent the deleterious effect of ADNP mutations.
# [5] = system: Tyr mice; test: Fecal microbiota real-time PCR loads; format: in vivo, mouse; parameters: key to NAP efficacy: microbiota: corrections by NAP treatment (+)
# Method: Microbiome—Fecal samples were collected from 12.2±0.19-week-old mice. Samples were prepared and analyzed as previously described (57). Microbiome data was analyzed after applying the logarithmic transformation.
# [6] = Ivashko-Pachima and Gozes 2020; cited from earlier work
# [7] = Tyr mouse, first symbol of cell
# [8] = males and WT females, data not shown
compound,measurement,setting,value
"CC[C@H](C)[C@H](NC(=O)[C@H](CO)NC(=O)[C@@H](NC(=O)[C@@H]1CCCN1C(=O)[C@H](C)NC(=O)[C@@H](N)CC(N)=O)C(C)C)C(=O)N1CCC[C@H]1C(=O)N[C@@H](CCC(N)=O)C(=O)O [NAP, NAPVSIPQ]",NAP efficacy: visual evoked potential,[1]; [7],+/+
same,VEP traces,"[1]; male Tyr mice, 4 consecutive daily doses",normalizing these effects
same,Decrease of VEP P2 AUC,"[1]; male Tyr mice, 4 daily s.c. doses of 1 μg NAP, 100, 300 and 3000 mcd",1.6-2.3 fold
same,VEP N2 AUC,"[1]; male Tyr mice, 100, 300 and 3000 mcd",same significant change
same,VEP P3 AUC,"[1]; male Tyr mice, 300 and 3000 mcd",significant NAP effect
same,NAP efficacy: synaptic structural alterations,[2]; [7],+/+
same,"Mushroom shaped spine density, motor cortex",[2]; female Tyr mice,significantly affecting
same,PSD95 volume in the hippocampus,[2]; female Tyr mice,complete resolution
same,Increase in motor cortex L5 layer spine density,"[2]; female Tyr mice, i.p. NAP, 9 days",~17%
same,Hippocampal total spines and subtypes,"[2]; females and WT males, data not shown",no genotype or treatment changes in females or treatment effect on WT males
same,Increase in CA1 hippocampal dendritic spine density,"[2]; male Tyr mice, i.p. NAP 0.4 μg/0.1 ml saline, 9 days",~23%
same,Motor cortex spine density,[2]; [8],No genotype or treatment changes were observed in males and no treatment effect was found on WT females
same,Motor cortex spine subtypes,[2]; [8],No NAP effect
same,Shank3-Adnp-actin interactions,[3],NAP-mediated normalization
same,Difference between effects of NAP and SKIP on EB3 track length and speed,"[4]; 10^−12 M, 4 hrs",no significant differences
same,Speed and track length of EB3 comets,"[4]; cells expressing ADNP p.Glu830synfs*83, 10^−12 M, 4 hrs",significantly augmented
same,EB3 comet speed,"[4]; cells expressing ADNP p.Lys408Valfs*31, 10^−12 M, 4 hrs",significantly augmented
same,EB3 activity (track length and comet speed),"[4]; cells expressing ADNP p.Lys408Valfs*31 SDM, 10^−12 M, 4 hrs",recovered EB3 activity to the control level
same,Speed and track length of EB3 comets,"[4]; cells expressing ADNP p.Ser404*, 10^−12 M, 4 hrs",significantly augmented
same,EB3 comet track length and speed,"[4]; cells overexpressing full-length ADNP, 10^−12 M, 4 hrs",did not further influence
same,EB3 track length and speed compared to non-treated control,"[4]; no ADNP plasmid, 10^−12 M, 4 hrs",increased EB3 track length and speed
same,MT activities in the face of all ADNP mutations,[4]; summary of results,normalized MT activities
same,NAP efficacy: microbiota,[5]; [7],+/+
same,"EubV3, BIF, Lacto, Entero loads",[5]; WT mice,no effect on WT mice
same,Clostridium coccoides group (gCcoc) and Mouse intestinal Bacteroides (MIB) loads,"[5]; WT mice, data not shown",other varying effects
same,Bifidobacterium genus (BIF) load,[5]; female Tyr mice,NAP correction
same,Total eubacterial load (EubV3),[5]; male Tyr mice,corrected with NAP treatment
same,Cell penetration,[6],bioavailable by endocytosis

# Reference: patent publication US20250032580A1, “USE OF ADNF POLYPEPTIDES IN THERAPY” (RAMOT AT TEL-AVIV UNIVERSITY LTD., priority 2021, published 2025)
